From ChEMBL document CHEMBL4823308, “Optimization of Triarylpyridinone Inhibitors of the Main Protease of SARS-CoV-2 to Low-Nanomolar Antiviral Potency” (ACS Med Chem Lett, 2021)
≈ marks a conversion by molar mass, not a printed value.

What was measured:
in vitro [1] = settings: chlorocebus sabaeus, Vero E6 cells
Description: (§1) Cytotoxicity against African green monkey Vero E6 cells after 72 hrs by MTT assay

in vitro [2] = settings: human, 16HBE14o- cells
Description: (§2) Cytotoxicity against human 16HBE14o- after 72 hrs by MTT assay

[3] = Aqueous solubility of the compound in Britton-Robinson buffer at pH 6.5 after 48 hrs by shake flask method; assay type: physicochemical
[4] = pampa, pH 7.4, 18 h
Description: (§3) Permeability of compound in PBS at pH 7.4 after 18 hrs by PAMPA

Vero C1008 = settings: chlorocebus sabaeus, vero c1008, 72 h
Description: as §1

16HBE14o- = settings: human, 72 h
Description: as §2

SARS-CoV-2 = settings: 16hbe14o-
Description: Antiviral activity against SARS-CoV-2 infected in 16HBE14o- cells assessed as inhibition of viral replication after 1 day by Nano-Glo luciferase assay

in vitro [5] = settings: PAMPA, pH 7.4
Description: as §3

| Structure (SMILES) | CC50 at 72 h (in vitro [2]) [µM] | solubility thermodynamic at 48 h [3] [µg/mL] | permeability [4] | CC50 (Vero C1008) [µM] | further results |
| --- | --- | --- | --- | --- | --- |
| CCC(CC)COC(=O)[C@H](C)N[P@](=O)(OC[C@H]1O[C@@](C#N)(c2ccc3c(N)ncnn23)[C@H](O)[C@@H]1O)Oc1ccccc1 | 41 |  |  |  | CC50 at 72 h (in vitro [1]): 72 µM |
| CCCOc1cc(Cl)cc(-c2cc(-c3ccccc3C#N)cn(-c3cccnc3)c2=O)c1 | 20 |  |  |  | CC50 at 72 h (in vitro [1]): 22 µM |
| N#Cc1ccccc1-c1cc(-c2cc(Cl)cc(OCCC(F)(F)F)c2)c(=O)n(-c2cccnc2)c1 | 25 | 25 (≈ 50.4 µM) | 4 10^-6 cm/s |  | CC50 at 72 h (in vitro [1]): 22 µM |
| N#Cc1ccccc1-c1cc(-c2cc(Cl)cc(OCC3CC3)c2)c(=O)n(-c2cccnc2)c1 | > 100 | 3 (≈ 6.61 µM) | 4.27 10^-6 cm/s |  | CC50 at 72 h (in vitro [1]): > 100 µM |
| Cn1cc(-c2cc(-c3cc(Cl)c(F)c(OCc4ccccc4Cl)c3)c(=O)n(-c3cccnc3)c2)c(=O)[nH]c1=O | > 32.5 | 116 (≈ 206 µM) |  | > 32.5 |  |
| Cc1ncoc1COc1cc(Cl)cc(-c2cc(-c3c[nH]c(=O)[nH]c3=O)cn(-c3cccnc3)c2=O)c1 |  | 168 (≈ 333 µM) | 0.24 10^-6 cm/s |  |  |
| Cn1cc(-c2cc(-c3cc(Cl)cc(OCc4scnc4C(F)(F)F)c3)c(=O)n(-c3cccnc3)c2)c(=O)[nH]c1=O | > 100 | 24.8 (≈ 42.2 µM) | 1.16 10^-6 cm/s | > 100 |  |
| Cc1scnc1COc1cc(Cl)cc(-c2cc(-c3c[nH]c(=O)[nH]c3=O)cn(-c3cccnc3)c2=O)c1 |  |  |  | > 100 | CC50 (16HBE14o-): 22 µM |
| O=c1[nH]cc(-c2cc(-c3cc(Cl)c(F)c(OCc4ccccc4Cl)c3)c(=O)n(-c3cccnc3)c2)c(=O)[nH]1 | > 95 | 21.8 (≈ 39.5 µM) | 0.73 10^-6 cm/s | > 80 |  |
| Cc1ocnc1COc1cc(Cl)cc(-c2cc(-c3ccccc3C#N)cn(-c3cccnc3)c2=O)c1 |  | 13.1 (≈ 26.5 µM) | 3.04 10^-6 cm/s |  |  |
| Cn1cc(-c2cc(-c3cc(Cl)cc(OCC4CC4)c3)c(=O)n(-c3cccnc3)c2)c(=O)[nH]c1=O | > 100 | 14.2 (≈ 29.8 µM) | 3.25 10^-6 cm/s | 82 |  |
| Cn1cc(-c2cc(-c3cc(Cl)cc(OCc4ocnc4C(F)(F)F)c3)c(=O)n(-c3cccnc3)c2)c(=O)[nH]c1=O |  | 34.5 (≈ 60.3 µM) | 1.03 10^-6 cm/s |  |  |
| Cn1cc(-c2cc(-c3cc(Cl)cc(OCCC(F)(F)F)c3)c(=O)n(-c3cccnc3)c2)c(=O)[nH]c1=O | 95 | 57 (≈ 110 µM) | 2.26 10^-6 cm/s | > 100 |  |
| O=c1[nH]cc(-c2cc(-c3cc(Cl)cc(OCc4scnc4C(F)(F)F)c3)c(=O)n(-c3cccnc3)c2)c(=O)[nH]1 | > 100 |  |  | > 100 | EC50 (SARS-CoV-2): Not Active |
| O=c1[nH]cc(-c2cc(-c3cc(Cl)cc(OCc4ocnc4C(F)(F)F)c3)c(=O)n(-c3cccnc3)c2)c(=O)[nH]1 | > 100 |  | 0.57 10^-6 cm/s | > 100 | EC50 (SARS-CoV-2): Not Active |
| Cc1ocnc1COc1cc(Cl)cc(-c2cc(-c3c[nH]c(=O)[nH]c3=O)cn(-c3cccnc3)c2=O)c1 |  | 7.6 (≈ 15.1 µM) |  |  |  |
| O=C(N[C@H](CO)[C@H](O)c1ccc([N+](=O)[O-])cc1)C(Cl)Cl [CHLORAMPHENICOL] |  |  |  |  | Papp at 18 h (in vitro [5]): 5 ×10⁻⁶ cm/s |
| Cn1c(=O)c2[nH]cnc2n(C)c1=O.O [THEOPHYLLINE] |  |  |  |  | Papp at 18 h (in vitro [5]): 0.3 ×10⁻⁶ cm/s |
